Source: patent US11352396B2, “Antimicrobial peptides and methods of using same” (Zoetis Services LLC, priority 2017, dated 2022)

Assays:
[1] = tested on: MSSP (Methicillin-Susceptible Staphylococcus pseudintermedius); assay: MIC against selected strains of MSSP; format: cell-based; parameters: MIC MSSP 49051 / MIC MSSP 81923 / MIC MSSP 84250 / Effect on MSSP 86000 / Effect on MSSP 72036 / Effect on MSSP 78032: unit not given beside the values; Effect on MSSP 71990 / Effect on MSSP 86001 / Effect on MSSP 72191 / Effect on MSSP 76986 / Effect on MSSP 77378 / Effect on MSSP 81923 / Effect on MSSP 84250 / Effect on MSSP 84658: unit: µM; settings: for SP 49051: S. pseudintermedius 49051, Table 6; for Effect on MSSP 71990: strain 71990, Table 5; for Effect on MSSP 72036: strain 72036, Table 5; for Effect on MSSP 72191: strain 72191, Table 5; for Effect on MSSP 76986: strain 76986, Table 5; for Effect on MSSP 77378: strain 77378, Table 5; for Effect on MSSP 78032: strain 78032, Table 5; for Effect on MSSP 81923: strain 81923, Table 5; for Effect on MSSP 84250: strain 84250, Table 5; for Effect on MSSP 84658: strain 84658, Table 5; for Effect on MSSP 86000: strain 86000, Table 5; for Effect on MSSP 86001: strain 86001, Table 5
Summary of the method: (§1)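 Broth microdilution MIC following CLSI VET01-S2: peptides titrated 50 μM to 0.05 μM in assay, inoculum a 0.5 McFarland suspension diluted 1:250 in Mueller-Hinton broth. Incubated overnight (18–20 h); MIC taken visually as lowest concentration without visible growth.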

S. aureus ATCC 29213 = format: cell-based; parameters: key to SA 29213: MIC in μM (lowest conc. with no visible growth); settings: S. aureus 29213, Table 6
Summary of the method: (§2)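 Broth microdilution followed CLSI VET01-S2, with peptides serially diluted to in-assay concentrations of 50 μM to 0.05 μM. A 0.5 McFarland inoculum diluted 1:250 in Mueller-Hinton Broth was incubated with peptide for 18-20 hours. MIC was read visually as the first well without visible growth.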

cRBC = format: cell-based, canine
Summary of the method: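 Washed, plasma-free red cells were incubated with peptide titrated from 50 µM to 0.05 µM for 1 h at 37 °C. Hemolysis was read as OD at 405 nm, scaled between phosphate buffer alone (0%) and 1% Triton X-100 (100%).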

[2] = tested on: Canine-derived epithelial keratinocyte (CPEK) cells; format: cell-based
Summary of the method: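 CPEK cells were dosed with peptides at 50 μM to 0.05 μM and incubated overnight at 37 °C, 5% CO2. Viability was read by CellTiter-Glo luminescence. Percent effect was normalised to 0.1% Triton X-100 (high) and phosphate buffer alone (zero).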

E. coli ATCC 25922 = format: cell-based; settings: E. coli 25922, Table 6
Summary of the method: as §2

[3] = tested on: MRSP (Methicillin-Resistant Staphylococcus pseudintermedius); assay: MIC against selected strains of MRSP; format: cell-based; parameters: key to MIC MRSP 72192 / MIC MRSP 76923 / MR 71994 / Mr 88493 / MR 72035 / MR 72192 / MR 76923 / MR 79882 / MR 80279 / MR 81926 / MR 86002 / MR 87665: MIC in μM (visual, first well with no growth); settings: for MR 71994: MRSP strain 71994, Table 6; for MR 72035: MRSP strain 72035, Table 6; for MR 72192: MRSP strain 72192, Table 6; for MR 76923: MRSP strain 76923, Table 6; for MR 79882: MRSP strain 79882, Table 6; for MR 80279: MRSP strain 80279, Table 6; for MR 81926: MRSP strain 81926, Table 6; for MR 86002: MRSP strain 86002, Table 6; for MR 87665: MRSP strain 87665, Table 6; for Mr 88493: MRSP strain 88493, Table 6
Summary of the method: as §1

Substance	SP 49051 [1]	Effect on MSSP 71990 [1]	Effect on MSSP 72036 [1]	Effect on MSSP 72191 [1]	Effect on MSSP 76986 [1]	Effect on MSSP 77378 [1]	Effect on MSSP 78032 [1]	Effect on MSSP 81923 [1]	Effect on MSSP 84250 [1]	Effect on MSSP 84658 [1]	Effect on MSSP 86000 [1]	Effect on MSSP 86001 [1]	SA 29213 (S. aureus ATCC 29213)	cRBC (50 μM) (cRBC)	CPEK (50 μM) [2]	EC 25922 (E. coli ATCC 25922) [µM]	MR 71994 [3]	MR 72035 [3]	MR 72192 [3]	MR 76923 [3]	other results
102 (KWCFRACYRGICYRRCRD; Artificial Antimicrobial peptide) [compound 102]	1.6	1.6	1.6	3.1	1.6	0.8	1.6	1.6	1.6	1.6	1.6	1.6	6.2	23.9	−2.1	1.6	3.1	3.1	1.6	1.6	MR 79882 [3]: 1.6; MR 80279 [3]: 1.6; MR 81926 [3]: 1.6; MR 86002 [3]: 1.6; MR 87665 [3]: 1.6; Mr 88493 [3]: 3.1
110 (KWCFRVCYRGYCYRRCRD; Artificial Antimicrobial peptide) [compound 110]	3.1	1.6	3.1	3.1	1.6	1.6	1.6	3.1	3.1	3.1	3.1	3.1	6.2	46.3	10.7	1.6	3.1	3.1	3.1	3.1	MR 79882 [3]: 1.6; MR 80279 [3]: 1.6; MR 81926 [3]: 3.1; MR 86002 [3]: 3.1; MR 87665 [3]: 3.1; Mr 88493 [3]: 3.1
105 (KWCFRVCYRGICYRRCRN; Artificial Antimicrobial peptide) [compound 105]	1.6	1.6	1.6	1.6	1.6	0.8	1.6	1.6	1.6	3.1	1.6	1.6	6.2	97.9	8.6	3.1	1.6	1.6	1.6	1.6	MR 79882 [3]: 0.8; MR 80279 [3]: 1.6; MR 81926 [3]: 1.6; MR 86002 [3]: 1.6; MR 87665 [3]: 1.6; Mr 88493 [3]: 3.1
28 (PKWCFRVCYRGICYRRCR; Artificial Antimicrobial peptide) [compound 28]	1.6	1.6	1.6	1.6	0.8	1.6	1.6	1.6	1.6	1.6	1.6	1.6	6.2	94.4	19.4	0.8	1.6	3.1	3.1	1.6	MR 79882 [3]: 0.8; MR 80279 [3]: 1.6; MR 81926 [3]: 1.6; MR 86002 [3]: 1.6; MR 87665 [3]: 1.6; Mr 88493 [3]: 1.6
104 (KWCFRVCYFGICYRRCRD; Artificial Antimicrobial peptide) [compound 104]	1.6	1.6	3.1	1.6	1.6	1.6	1.6	3.1	3.1	1.6	3.1	1.6	6.2	100.6	6.0	3.1	3.1	1.6	1.6	1.6	MR 79882 [3]: 1.6; MR 80279 [3]: 1.6; MR 81926 [3]: 1.6; MR 86002 [3]: 1.6; MR 87665 [3]: 3.1; Mr 88493 [3]: 3.1
